Assay results published in patent EP1304101A1, “Composition and method for use of pyridinium derivatives in cosmetic and therapeutic applications” (Torrent Pharmaceuticals Ltd, priority 2001, dated 2003).

Key:
[1] = Free radical scavenging activity on ABTS radical cation (absorbance at 730nm); assay type: biochemical
Method: This method measures the relative ability of free radical scavenging substances to scavenge the ABTS ^.+ i.e. 2,2-Azino-bis-(3-ethyl benzo thiazoline-6-sulfonate) radical cation as compared to a standard amount of standard or free radical scavengers antioxidants. Incubation of ABTS with Peroxidase (metmyoglobin) and hydrogen peroxide results in the production of radical cation ABTS^.+ . This species is blue- green in colour and can be detected at 730nm. Antioxidants or free radical scavengers in the added sample that causes suppression of the color to a degree that is proportional to their concentration.
• A. Phosphate Citrate Buffer (pH 5.0): 48.5ml of 0.1M citric acid with sufficient 0.2M disodium hydrogen phosphate to produce 100 ml. • B. Phosphate Buffer Saline (PBS): Dissolve 40.0g of NaCl, 1.0g of KCI, 1.0g of KH2PO4 and 3.05g of Na2HPO4 in 1 litre milli-Q water. Dilute 200ml of above solution to 1 litre with milli-Q water (pH 7.4-7.6). • C. 3µM stock solution of Peroxidase was prepared in phosphate buffer saline pH 7.4(PBS). • D. 1.08 mM stock solution of Hydrogen peroxide was prepared in phosphate buffer saline pH 7.4 (PBS).
1 tablet (10mg) was dissolved in phosphate citrate buffer (pH 5.0).
5.0ml of ABTS stock solution was diluted with PBS to 20 ml.
320 µg of the enzyme was dissolved in 2.5 ml of PBS.
12µl of Hydrogen Peroxide (30%w/v) was diluted to 100ml with PBS.
0.1mM of stock solution of the drug was prepared which was serially diluted in PBS to get solutions of different concentrations.
To 18ml of ABTS stock solution, 100µl of Horseradish Peroxidase stock solution was added.
As soon as 1.5 ml of hydrogen peroxide solution was added to the above solution, blue-green colour of the ABTS radicals appeared. This solution was incubated at 30°C for 30 min.
980µl of ABTS radical stock solution was added to an eppendorf tube. To it was added 100µl of various PBS solution.
980µl of ABTS radical stock solutions were added to different eppendorf tubes. To it were added 100µl of various concentrations of drug solution.
The absorbance of control and test samples was recorded immediately at 730nm taking PBS as blank.
Calculation: The percent antioxidant activity was calculated according to the formula: % Antioxidant activity = [O.D of test sample/O.D of control*100]-100.

Maillard reaction = experiment: AGE inhibiting activity, Method I (BSA + ribose, fluorescence); assay type: biochemical; settings: 37° C for 7 days
Method: The following method was used to determine the inhibitory effect of the test compound on Maillard reaction in-vitro.
Addition of compound was done in aseptic conditions. Sodium azide (0.02%) was also added in this solution in order to prevent microbial growth. A separate tube containing BSA, ribose and sodium azide in the same concentration and buffer as above, but without any test compound, was also incubated as positive control.
After incubation at 37° C for 7 days, 40 micro litre sample from each tube was removed and diluted with PBS to have final concentration of BSA at 1mg/ml. The fluorescence of all the samples was measured at Excitation Maximum of 355nM and the Emission Maximum of 460nM using f-MAX Fluorimeter (Molecular Device, USA). In order to study the effect of test compound on fluorescence, freshly prepared compound solution was mixed with previously incubated positive control (i.e. BSA + ribose), so as to achieve same concentration of all the components as that of test samples.
The percent inhibition of test compound was measured as follows: % Inhibition =(F4 - F3)/(F4)X 100 [formula] Where F3 = Fluorescence of BSA + ribose + compound,F4 is fluorescence of incubated (BSA + ribose) + freshly added test compound.

Rat Tail Tendon Collagen = experiment: In-vivo AGE breaking: collagen solubility in rat tail tendon of STZ-diabetic rats after 8 weeks of treatment; design: species or system male wister rats; settings: 8 weeks treatment
Excerpt: The results are mentioned in Table 3 below:
A brief summary of observation is as follows.

AGE-BSA = biological target: T1, AGE-BSA (Bos taurus, UniProt P02769); experiment: In-vitro AGE breaking activity by ELISA (16 weeks AGE-BSA incubated with test compound); assay type: biochemical, bovine; settings: for % Breakage: 37°C, 24 hours; for AGE breaking activity compared to PTB: comparison in words based on Table 2
T1 construct: Bovine serum albumin (fraction V) (BSA); from tissue
T1 sequence (P02769 25-607): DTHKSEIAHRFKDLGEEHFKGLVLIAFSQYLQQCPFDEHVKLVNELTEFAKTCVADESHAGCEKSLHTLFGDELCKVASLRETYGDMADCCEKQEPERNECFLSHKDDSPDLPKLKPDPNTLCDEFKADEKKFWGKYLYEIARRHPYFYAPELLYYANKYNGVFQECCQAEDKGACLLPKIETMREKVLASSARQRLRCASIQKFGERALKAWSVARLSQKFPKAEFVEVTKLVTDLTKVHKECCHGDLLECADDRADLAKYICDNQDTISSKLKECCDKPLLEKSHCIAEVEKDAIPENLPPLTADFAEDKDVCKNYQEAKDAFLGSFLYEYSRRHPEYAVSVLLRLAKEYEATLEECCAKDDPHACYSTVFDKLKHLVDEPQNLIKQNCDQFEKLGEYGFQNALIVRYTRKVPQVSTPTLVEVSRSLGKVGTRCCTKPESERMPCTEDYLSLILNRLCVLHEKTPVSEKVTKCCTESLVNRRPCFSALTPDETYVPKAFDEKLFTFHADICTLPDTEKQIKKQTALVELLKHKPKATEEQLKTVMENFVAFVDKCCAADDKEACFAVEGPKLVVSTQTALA
Method: AGE breaking activity has been confirmed by the screening procedure as mentioned below: • Materials: • Bovine serum albumin (fraction V) (BSA) • Glucose, analytical grade • Phosphate buffered saline (PBS) • Equipment: • Microplate ELISA Reader - Spectramax Plus (Molecular Devices, USA) • Microplate washer, (Bio -Tec Instruments, USA) • pH meter • Methods of experiment: Elisa (Enzyme Linked Immunosorbent Assay) 160 mg/ml of protein, bovine serum albumin, BSA and 1.6M glucose sugar were dissolved in phosphate buffered saline, PBS. Sodium azide was added at 0.02% concentration as a preservative. The solution was filtered asceptically through a 0.22 µM filter and kept for aging at 37°C for 16 weeks. After 16 weeks the solution was dialyzed against PBS, aliquoted and stored at - 20°C.
To determine the AGE breaking activity, 10 µg/ml of the 16 weeks AGE-BSA was incubated with different concentrations of the test compounds at 37°C for 24 hours and AGE breaking activity of the test compounds by ELISA was determined.
Different concentrations of 16 weeks AGE-BSA were coated on a microtitre plate as standard. Each concentration is coated in triplicates. • 2. The test samples were coated on microtitre plate at a concentration of 5 ng. to 20 ng per well in triplicates. • 3. The plate was incubated at 37°C for one hour. • 4. After incubation the plate was washed with PBST (PBS with 0.05% Tween 20). • 5. Blocking with 5% skimmed milk in PBS at 37°C for one hour was done. • 6. The plate was washed with PBST. • 7. Primary antibody against AGE-BSA was added and the plate is incubated at 37°C for one hour. • 8. The plate was washed with PBST • 9. Secondary antibody anti rabbit HRPO (Horse-Radish Per Oxidase) conjugate was added and the plate is incubated at 37°C for one hour. • 10. The plate was washed with PBST. • 11. Colour development with OPD (orthophenylenediamine dihydrochloride) and hydrogen peroxide was done. • 12. OD (optical density) at (450nm reading - 620nm reading) was measured after incubation at 37°C for 15 minutes with Microplate ELISA Reader.
The breaker activity of the compounds were determined by the following formula: % Breaker activity =(OD450-620 Control - OD450-620 Test)/(OD450-620 Control)x 100 [formula] OD450-620Control= Absorbance of 20ng AGE-BSA after incubation at 37°C for 24 hours without test compound OD450-620Test= Absorbance of 20ng AGE-BSA after incubation at 37°C for 24 hours with required concentration of test compound

| SMILES | Relative Free Radical Scavenging Activity(%) on ABTS ([1]; 11.5µM) [%] | Relative Free Radical Scavenging Activity(%) on ABTS ([1]; 23.0µM) [%] | Relative Free Radical Scavenging Activity(%) on ABTS ([1]; 46.0µM) [%] | Relative Free Radical Scavenging Activity(%) on ABTS ([1]; 92.5µM) [%] | %Inhibition (Day 7) (Maillard reaction; 10mM) [%] | % Improvement in collagen solubility with respect to untreated control subject. (Rat Tail Tendon Collagen; 10.0mg/kg) [%] | % Breakage (AGE-BSA; 10 mM test compound) [%] | % Breakage (AGE-BSA; 50 mM test compound) [%] | % Improvement in collagen solubility with respect to untreated control subject. (Rat Tail Tendon Collagen; 7.5mg/kg) [%] | % Breakage (AGE-BSA; 5 mM test compound) [%] | AGE breaking activity compared to PTB (AGE-BSA) | Relative Free Radical Scavenging Activity(%) on ABTS ([1]; 23 µM) [%] | Relative Free Radical Scavenging Activity(%) on ABTS ([1]; 46 µM) [%] | %Inhibition (Day 7) (Maillard reaction; 2.5mM) [%] | % Improvement in collagen solubility with respect to untreated control subject. (Rat Tail Tendon Collagen; 15.0 mg/kg) [%] | % Improvement in collagen solubility with respect to untreated control subject. (Rat Tail Tendon Collagen; 6.0mg/kg) [%] | %Inhibition (Day 7) (Maillard reaction; 6.25mM) [%] |
| --- | --- | --- | --- | --- | --- | --- | --- | --- | --- | --- | --- | --- | --- | --- | --- | --- | --- |
| CS(=O)(=O)NNC(=O)c1ccc[n+](CC(=O)c2cccs2)c1.[Br-] [Compound 5, 1-(2-thien-2'-yl-2-oxoethyl) -3-(methanesulfonylhydrazinocarbonyl) pyridinium bromide] | 47.2 | 65.6 | 83.7 | 100 | 70 | 88.80 | 16 | 68 | – | – | – | – | – | – | – | – | – |
| O=C(NNC(=O)c1ccc[n+](CC(=O)c2cccs2)c1)c1ccc[n+](CC(=O)c2cccs2)c1.[Br-].[Br-] [Compound 6, N, N'-bis [3-carbonyl-1-(2-thien-2'-yl-2-oxoethyl)pyridinium] hydrazine dibromide] | – | – | – | – | – | – | – | – | 56.70 | 53 | superior | – | – | – | – | – | – |
| O=C(NNC(=O)c1ccc[n+](CC(=O)c2cccs2)c1)c1ccc[n+](CC(=O)c2cccs2)c1.[Cl-].[Cl-] [Compound 33, N, N'-bis [3-carbonyl-1-(2-thien-2'-yl-2-oxoethyl)pyridinium] hydrazine dichloride] | 58.4 | – | – | 100 | – | – | – | – | – | 20 | superior | 72.8 | 98.5 | 68.4 | 80.45 | – | – |
| O=C(C[n+]1cccc(C(=O)NNC(=O)c2ccc[n+](CC(=O)NC3CC3)c2)c1)NC1CC1 [Compound 39, N, N'-bis-[3-carbonyl-1-(2-cyclopropylamino-2-oxoethyl)pyridinium] hydrazine dichloride] | 43.0 | 62.8 | 95.6 | 98 | – | – | – | – | – | 22.8 | superior | – | – | – | – | 28.00 | – |
| CCOC(=O)NNC(=O)c1ccc[n+](CC(=O)c2cccs2)c1 [Compound 54, 1-(2-thien-2'-yl-2-oxoethyl)-3-(ethoxycarbonyl hydrazinocarbonyl) pyridinium bromide] | 5.22 | 15.45 | 46.82 | 77.07 | – | – | 33.43 | – | – | – | – | – | – | 46.3 | – | – | – |
| Cc1ccc(C(=O)C[n+]2cccc(C(=O)NNS(C)(=O)=O)c2)s1.[Cl-] [Compound 63, 1-(2-(5-methylthien-2-yl)-2-oxoethyl)-3-(methanesulfonyl hydrazinocarbonyl) pyridinium chloride] | 10.75 | 47.20 | 88.64 | 99.18 | – | – | 25.17 | – | – | – | – | – | – | – | – | – | 58.15 |
